ChEMBL document CHEMBL1131790, “Structure-based design and synthesis of novel thrombin inhibitors based on phosphinic peptide mimetics” (Bioorg Med Chem Lett, 1999)

Molecular target: Prothrombin (Homo sapiens, UniProt P00734)
Assay: In vitro inhibitory activity against thrombin

Point of comparison: CC(=O)N[C@H](Cc1c[nH]c2ccccc12)C(=O)N[C@H](Cc1ccc(C(=N)N)cc1)P(=O)(O)c1ccccc1, IC50 7.5 µM. Against it:
- N=C(N)c1ccc(C[C@@H](NC(=O)[C@H](N)Cc2ccc3ccccc3c2)P(=O)(O)c2ccccc2)cc1 — 12-fold lower, 0.6 µM
- COc1ccc(C[C@@H](NC(=O)[C@@H](Cc2ccc3ccccc3c2)NC(=O)OCc2ccccc2)P(=O)(O)c2ccccc2)cc1 — 9.3-fold higher, 70 µM
- N=C(N)c1ccc(C[C@@H](NC(=O)[C@@H](Cc2ccc3ccccc3c2)NC(=O)OCc2ccccc2)P(=O)(O)c2ccccc2)cc1 — 2.1-fold lower, 3.6 µM
